{
  "source": "patent US20200085805A1",
  "about": "“METHOD FOR TREATING CANCER RELATED TO ACTIVATION OF RAS GENE IN SUBJECT” (priority 2018, published 2020)",
  "key": {"[1]": {"system": "L185+L186 Drosophila tumor model", "test": "Inhibition of tumors in GFP-scrib-/- Drosophila tumor model (GFP fluorescence, live imaging)", "assay_type": "in vivo, Drosophila melanogaster", "details": "oral administration of 24 mM in doped culture medium, 5 days, 80 pupae; without compound 2.37×10^9 μW/cm^2", "description": "A green fluorescent protein (GFP)-tagged FLP/FRT recombinant system and scrib/TM6B balanced Drosophila melanogaster strain were used for hybridization to obtain a GFP-scrib−/− chimeric tumorigenesis model (L185+L186), wherein the GFP expression is in linkage with tumorigenesis. The preparation of a normal culture medium and a doped culture medium was the same as in embodiment 1. After culturing in the normal culture medium and the doped culture medium for 5 days, 80 pupae were taken from the culture tubes used for the test and washed twice with PBS (phosphate buffered saline solution). The pupae were neatly arranged on slides and were then transferred to an ice box to freeze for 2 hours. The pupae were observed under an IVIS Lumina X5 live imaging system (excitation light wavelength 450-490 nm, the same hereafter), images were taken, and the expression of the green fluorescent protein was evaluated."}, "RAS mRNA": {"system": "RAS mRNA", "test": "Reduction of RAS mRNA in Drosophila pupae, measured by RT-PCR (2-ΔΔCt method)", "assay_type": "in vivo", "details": "24 mM in culture medium, 5 days culture, 40 pupae, GAPDH internal reference, versus normal medium control", "procedure": "The molecular weight of 1-methyl-4-phenyl-1,2,3,6-tetrahydropyridine is 173.25 g/mol. 1.7325 g of the compound was accurately weighed, dissolved in 10 mL of DMSO solution to prepare a 1 M mother liquid for later use.\nThe preparation of a normal culture medium: 0.53 g of agar and 1.6 g of yeast extraction powder was added to 50 mL H2O. The mixture obtained was heated until boiling. Then, 0.43 g of NaKT, 0.033 g of anhydrous CaCl2, 1.58 g of sucrose, 3.17 g of glucose, and 3.88 g of corn flour (pre-mixed thoroughly with cold water to prevent agglomeration) were added to the mixture, and was brought to boil before stopping heating. The final mixture was transferred in aliquots into a number of culture tubes with a diameter of 25 mm and a volume of 5-8 mL. The filled culture tubes were sterilized at high temperature (30 min, 116° C.), followed by cooling to around 50° C. […]\nIn the present invention, the content of RAS mRNA was measured by RT-PCR. […] After the amplification, the relative expression level of K-RAS in Drosophila was determined by the 2-ΔΔCt method.\nAfter culturing in the normal culture medium (as a control group) and a culture medium doped by 24 mM of 1-methyl-4-phenyl-1,2,3,6-tetrahydropyridine (as a test group) for 5 days, 40 pupae were taken from each of the culture tubes used for the test. […] The relative amount of RAS mRNA was determined by the above method."}},
  "data": [
    {"smiles": "CN1CC=C(c2ccccc2)CC1", "note": "[1-methyl-4-phenyl-1,2,3,6-tetrahydropyridine]", "values": [
      {"measurement": "absolute value of the fluorescence of the Drosophila tumor model", "setting": "[1]", "result": "3.5×10^8 μW/cm^2"},
      {"measurement": "reduction of RAS mRNA level", "setting": "RAS mRNA", "result": 3.5, "unit": "folds"}
    ]}
  ]
}
